In PMC6219668 (Oncotarget, 2018):
Read-outs that look alike come from different tables or passages of the source.

What was measured:
MOLM-13 = test: cells; type: cell-based; settings: Homo sapiens; MOLM-13, AML, dominant CDK6; read-out: IC50, mean ± SD
CAMA-1 = test: cells; type: cell-based; settings: Homo sapiens; CAMA-1, ER+ BC, dominant CDK4; read-out: IC50, mean ± SD
T-47d = test: cells; type: cell-based; settings: Homo sapiens, T47D, 72 h
in vivo = settings: male, rat, po
HBRX1286 = type: in vivo; settings: HBRX1286, Breast, TNBC, Rb absent; 250 mg/kg qd
TE-11 = test: cells; type: cell-based; settings: Homo sapiens, TE-11, 72 h
A2058 = test: cells; type: cell-based; settings: Homo sapiens, A2058, 72 h
NCI-H460 [1] = test: cells; type: cell-based; settings: Homo sapiens, NCI-H460, 72 h
SK-MEL-2 = test: cells; type: cell-based; settings: Homo sapiens, SK-MEL-2, 72 h
Rb phosphorylation = test: animal or person; type: in vivo; settings: Rattus norvegicus, JeKo-1, read-out: ppRb inhibition, range
KELLY = test: cells; type: cell-based; settings: 72 h
hs944T = test: cells; type: cell-based; settings: 72 h
HBCx-6 = type: in vivo; settings: HBCx-6, Breast, TNBC, Rb present; 125 mg/kg bid × 21
TE-8 = test: cells; type: cell-based; settings: Homo sapiens, TE-8, 72 h
NCI-H1975 = test: cells; type: cell-based; settings: Homo sapiens, NCI-H1975, 72 h
NCI-H2009 = system: NCI-H2009; set-up: method as in Brain C et al, manuscript in preparation; settings: RB1-deleted lung adenocarcinoma line; up to 10 μM; ref Brain C et al, manuscript in preparation; cited from earlier work
NCI-H1792 [2] = test: cells; type: cell-based; settings: Homo sapiens, NCI-H1792, 72 h
PC-14 = test: cells; type: cell-based; settings: Homo sapiens, PC-14, 72 h
A549 = test: cells; type: cell-based; settings: Homo sapiens, A549, 72 h
HCC-827 = test: cells; type: cell-based; settings: Homo sapiens, HCC827; HCC-827, 72 h
HBCx-3 = type: in vivo; settings: HBCx-3, Breast, TNBC, Rb present; 125 mg/kg bid × 21
NCI-H3122 = test: cells; type: cell-based; settings: Homo sapiens, NCI-H3122, 72 h
HBRX1600 = type: in vivo; settings: HBRX1600, Breast, TNBC, Rb present; 250 mg/kg qd
NCI-H460 [3] = test: cells; type: cell-based; settings: Homo sapiens, NCI-H460, 72 h; remark: listed apart in the source
UACC-62 = test: cells; type: cell-based; settings: Homo sapiens, UACC-62, 72 h
COR-L105 = test: cells; type: cell-based; settings: Homo sapiens, COR-L105, 72 h
MELJUSO = test: cells; type: cell-based; settings: Homo sapiens, MEL-JUSO, 72 h
NCI-H441 = test: cells; type: cell-based; settings: Homo sapiens, NCI-H441, 72 h
A-375 [4] = test: cells; type: cell-based; settings: Homo sapiens, A-375, 72 h
MCF-7 = test: cells; type: cell-based; settings: Homo sapiens, MCF7; MCF-7, 72 h
NCI-H23 = test: cells; type: cell-based; settings: Homo sapiens, NCI-H23, 72 h
SK-MEL-28 = test: cells; type: cell-based; settings: Homo sapiens, SK-MEL-28, 72 h
[5] = humans, 600 mg once daily; data not shown; cited from earlier work
JeKo-1 xenograft = type: in vivo; settings: for tumor response: qd, po
HPAX0991 = type: in vivo; settings: HPAX0991, Pancreatic, Rb present; 250 mg/kg qd
NCI-H1792 [6] = test: cells; type: cell-based; settings: Homo sapiens, NCI-H1792, 72 h; remark: listed apart in the source
A-375 [7] = test: cells; type: cell-based; settings: Homo sapiens, A-375, 72 h; remark: listed apart in the source
KYSE30 = test: cells; type: cell-based; settings: Homo sapiens, KYSE-30; KYSE30, 72 h
CDK2/cyclin A = settings: cited from earlier work
CDK5/p25 = settings: cited from earlier work
NCI-H1573 = test: cells; type: cell-based; settings: Homo sapiens, NCI-H1573, 72 h

In the case of `CC(=O)c1c(C)c2cnc(Nc3ccc(N4CCNCC4)cn3)nc2n(C2CCCC2)c1=O` [Palbociclib, reference compound], the IC50 (MOLM-13) is reported as 47 ± 25 µM and the IC50 (CAMA-1) is reported as 50 ± 24 µM.
With `CN(C)C(=O)c1cc2cnc(Nc3ccc(N4CCNCC4)cn3)nc2n1C1CCCC1` [Ribociclib, 7-cyclopentyl-2-(5-piperazin-1-yl-pyridin-2-ylamino)-7H-pyrrolo[2,3-d]pyrimidine-6-carboxylic acid dimethylamide] the IC50 (T-47d) was > 10 µM, the Cmax (in vivo; 10 mg/kg) was 110 ng/mL and the Cmax (in vivo; 75 mg/kg) was 1740 ng/mL. The Cmax (in vivo; 150 mg/kg) was 1680 ng/mL, the T/C (HBRX1286) was 82 and the IC50 (TE-11) was 4.41 µM. For the same compound, the IC50 (A2058) was > 10 µM, the IC50 (NCI-H460 [1]) was > 10 µM and the IC50 (SK-MEL-2) was 4.81 µM. The inhibition at 75 mg/kg (Rb phosphorylation) was 75 to 90%, the inhibition at 150 mg/kg (Rb phosphorylation) was 97 to 100% and the IC50 (KELLY) was 0.3 µM. The IC50 (hs944T) was 1.62 µM, the T/C (HBCx-6) was 64 and the IC50 (TE-8) was 2.44 µM. The IC50 (NCI-H1975) was 3.53 µM, the “effect on cell-cycle progression” value (NCI-H2009) was “no effect” and the IC50 (NCI-H1792 [2]) was 0.61 µM. The IC50 (PC-14) was > 10 µM, the IC50 (A549) was > 10 µM and the IC50 (HCC-827) was > 10 µM. For the same compound, the T/C (HBCx-3) was 45, the IC50 (NCI-H3122) was 0.51 µM and the T/C (HBRX1600) was 28. For the same compound, the IC50 (NCI-H460 [3]) was 0.62 µM, the IC50 (UACC-62) was > 10 µM and the IC50 (COR-L105) was > 10 µM. The IC50 (MELJUSO) was 0.89 µM, the IC50 (NCI-H441) was 4.74 µM and the IC50 (A-375 [4]) was 2.68 µM. The IC50 (MCF-7) was 0.18 µM, the IC50 (NCI-H23) was > 10 µM and the IC50 (SK-MEL-28) was > 10 µM. For the same compound, the “area under the concentration-time curve” value [5] was ~22,000 ng/mL × h, the maximum serum concentration [5] was ~1700 ng/mL and the tumor response (JeKo-1 xenograft; 75 mg/kg) was “complete tumor regression”. The tumor response (JeKo-1 xenograft; 150 mg/kg) was “complete tumor regression”, the tumor growth inhibition (JeKo-1 xenograft; rat, in vivo) was 56% and the T/C (HPAX0991) was 11. For the same compound, the IC50 (NCI-H1792 [6]) was > 10 µM, the IC50 (A-375 [7]) was > 10 µM and the IC50 (KYSE30) was 4.06 µM. For the same compound, the “activity against CDK2/cyclin A” value (CDK2/cyclin A) was “far less active”, the “activity against CDK5/p25” value (CDK5/p25) was “far less active” and the IC50 (NCI-H1573) was 0.61 µM.
